Source: ChEMBL document CHEMBL4396910, “Endomorphin-2 analogs containing modified tyrosines: Biological and theoretical investigation of the influence on conformation and pharmacological profile” (Eur J Med Chem, 2019)

Experiments:
Mu-type opioid receptor [1] = biological target: T1, Mu-type opioid receptor (Homo sapiens, UniProt P35372); test: Agonist activity at human recombinant MOR expressed in CHO cells co-expressing C-terminally modified Galphaqi5 assessed as induction of calcium mobilization by Fluo-4AM dye-based fluorescence assay relative to endomorphin-2; type: functional, cell-based
[2] = n-Octanol/water partition coefficient, log P of compound at 50 ug at pH 7.4 measured after 2 mins by RP-HPLC analysis; type: physicochemical; conditions: pH 7.4, 2 min
Mu-type opioid receptor [3] = biological target: T1, Mu-type opioid receptor; test: Agonist activity at human recombinant MOR expressed in CHO cells co-expressing C-terminally modified Galphaqi5 assessed as induction of calcium mobilization by Fluo-4AM dye-based fluorescence assay; type: functional, cell-based
[4] = biological target: Kappa-type opioid receptor (Homo sapiens, UniProt P41145); test: Displacement of [3H]U-69593 from human recombinant KOR expressed in CHO cell membranes incubated for 2 hrs by liquid scintillation counting method
[5] = biological target: Delta-type opioid receptor (Homo sapiens, UniProt P41143); test: Displacement of [3H]deltrophin-2 from human recombinant DOR expressed in CHO cell membranes incubated for 2 hrs by liquid scintillation counting method
Mu-type opioid receptor [6] = biological target: T1, Mu-type opioid receptor; test: Displacement of [3H]DAMGO from human recombinant MOR expressed in CHO cell membranes incubated for 2 hrs by liquid scintillation counting method
[7] = Retention time of the compound by RP-HPLC analysis; type: physicochemical
Mu-type opioid receptor [8] = biological target: T1, Mu-type opioid receptor; test: Potency index, ratio of endomorphin Ki to compound Ki for human recombinant MOR expressed in CHO cell membranes using [3H]DAMGO by radioligand binding assay

Delta-type opioid receptor, sequence (P41143 whole entry): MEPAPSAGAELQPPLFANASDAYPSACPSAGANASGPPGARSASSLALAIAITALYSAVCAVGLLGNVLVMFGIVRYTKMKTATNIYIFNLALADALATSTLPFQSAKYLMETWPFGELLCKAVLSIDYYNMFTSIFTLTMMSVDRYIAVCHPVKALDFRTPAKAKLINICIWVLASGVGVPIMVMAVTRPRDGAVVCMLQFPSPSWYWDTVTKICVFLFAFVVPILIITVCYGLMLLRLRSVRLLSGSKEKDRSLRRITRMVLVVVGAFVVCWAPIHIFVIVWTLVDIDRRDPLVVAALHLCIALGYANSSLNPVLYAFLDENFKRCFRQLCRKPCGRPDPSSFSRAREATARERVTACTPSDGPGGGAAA
T1 sequence (P35372 whole entry): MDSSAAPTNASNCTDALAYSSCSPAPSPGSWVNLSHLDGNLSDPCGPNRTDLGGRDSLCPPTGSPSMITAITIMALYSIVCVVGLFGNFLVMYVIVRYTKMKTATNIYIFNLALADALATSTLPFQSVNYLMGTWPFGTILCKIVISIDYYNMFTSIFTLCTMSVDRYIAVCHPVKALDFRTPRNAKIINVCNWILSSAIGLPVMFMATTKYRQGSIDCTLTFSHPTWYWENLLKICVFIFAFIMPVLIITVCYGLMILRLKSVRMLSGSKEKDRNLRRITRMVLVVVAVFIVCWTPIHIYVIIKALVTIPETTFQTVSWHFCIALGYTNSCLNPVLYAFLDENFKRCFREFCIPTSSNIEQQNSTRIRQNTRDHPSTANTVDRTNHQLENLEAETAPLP
Kappa-type opioid receptor, sequence (P41145 whole entry): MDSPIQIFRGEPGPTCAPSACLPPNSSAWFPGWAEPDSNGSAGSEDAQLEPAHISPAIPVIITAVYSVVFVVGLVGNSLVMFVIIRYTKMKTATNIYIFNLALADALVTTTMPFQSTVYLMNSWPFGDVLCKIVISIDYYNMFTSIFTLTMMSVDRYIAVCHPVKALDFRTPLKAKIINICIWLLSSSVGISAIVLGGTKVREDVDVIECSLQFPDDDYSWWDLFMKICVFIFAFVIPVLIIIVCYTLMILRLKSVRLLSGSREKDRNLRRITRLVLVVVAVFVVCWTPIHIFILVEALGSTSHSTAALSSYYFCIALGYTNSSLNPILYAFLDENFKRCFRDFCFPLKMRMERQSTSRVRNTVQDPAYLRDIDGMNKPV

| Compound | Intrinsic activity (Mu-type opioid receptor [1]) | logP [2] | EC50 (Mu-type opioid receptor [3]) | Ki [4] | Ki [5] | Ki (Mu-type opioid receptor [6]) | Retention_time [7] | Ratio Ki (Mu-type opioid receptor [8]) |
| --- | --- | --- | --- | --- | --- | --- | --- | --- |
| NC(=O)[C@H](Cc1ccccc1)NC(=O)[C@H](Cc1ccccc1)NC(=O)[C@@H]1CCCN1C(=O)[C@@H](N)Cc1cccc(O)c1 | 0.87 | 1.37 | 44.7 nM | 9150 nM | 12700 nM | 18.9 nM | 15.168 min | – |
| COc1cc(C[C@H](N)C(=O)N2CCC[C@H]2C(=O)N[C@@H](Cc2ccccc2)C(=O)N[C@@H](Cc2ccccc2)C(N)=O)cc(OC)c1O | 1.1 | 0.67 | 7.94 nM | 4480 nM | 10600 nM | 4.38 nM | 14.83 min | – |
| NC(=O)[C@H](Cc1ccccc1)NC(=O)[C@H](Cc1ccccc1)NC(=O)[C@@H]1CCCN1C(=O)[C@@H](N)Cc1ccc(O)cc1 [ENDOMORPHIN 2] | – | 1.13 | – | – | – | – | – | – |
| Cc1cc(C[C@H](N)C(=O)N2CCC[C@H]2C(=O)N[C@@H](Cc2ccccc2)C(=O)N[C@@H](Cc2ccccc2)C(N)=O)cc(C)c1O | 1.04 | 1.78 | 9.55 nM | 4650 nM | 5260 nM | 4.98 nM | 16.508 min | – |
| Cc1cc(O)c(Cl)c(C)c1C[C@H](N)C(=O)N1CCC[C@H]1C(=O)N[C@@H](Cc1ccccc1)C(=O)N[C@@H](Cc1ccccc1)C(N)=O | 0.92 | 1.8 | 0.617 nM | 37.3 nM | 900 nM | 0.26 nM | 16.122 | – |
| Cc1cc(O)cc(C)c1C[C@H](N)C(=O)N1CCC[C@H]1C(=O)N[C@@H](Cc1ccccc1)C(=O)N[C@@H](Cc1ccccc1)C(N)=O | 0.91 | 1.98 | 1.66 nM | – | 283 nM | 0.81 nM | 16.484 min | 4 |
